These results are taken from patent publication US7860552B2, “CNS assay for prediction of therapeutic efficacy for neuropathic pain and other functional illnesses” (The McLean Hospital Corporation, priority 2004, dated 2010).

Test [1] relates to healthy subjects. Briefly: fMRI of CNS activation in healthy subjects after a thermal stimulus (>44° C.). The format is in vivo, human. The conditions noted are these: compared with the placebo response, FIG. 2. Here is the method:
The methods of the invention generally involve the administration of a therapeutic intervention, e.g., a compound, to a subject, e.g., a mammal such as a human, non-human primate, or a rodent (e.g., a rat or mouse). In one embodiment, an acute painful stimulus, e.g., a thermal stimulus, is then administered to the subject. An appropriate time delay may be used in order to achieve appropriate therapeutic effect in the blood and/or CNS prior to administration of the stimulus. Levels of activation of the central nervous system (CNS) of the subject are then measured, typically by a neuroimaging technique such as fMRI. When a therapeutic intervention is being evaluated for efficacy against the functional illness, the levels of activity are examined to determine whether the intervention alters activity in the CNS (FIG. 1). The levels of activity may be determined with reference to one or more specific regions of the CNS, such as those associated, either directly or indirectly with the functional illness, or a general level of activity for the entire CNS, or portion thereof, may be determined without reference to specific anatomical or functional regions. Any alteration in the level of activity may be determined relative to a control, such as levels of activity in a subject treated with placebo or a therapeutic intervention with known efficacy against the functional illness. The method is advantageous in that the subject need not be suffering from the functional illness in order to determine the efficacy of a therapeutic intervention for the illness. […]
The present invention typically employs an imaging technique for measuring the level of activation of the CNS, e.g., by determining blood flow in the CNS. […] In addition, the imaging methods may also be employed to determine a general level of activation for the CNS, e.g., measured as the total number of activated voxels., without regard to the specific regions involved. […]

Test [2] relates to rats. Put plainly: fMRI of CNS activation in rats following heat stimulus. The format is in vivo, rat. The conditions noted are these: compared to placebo group, FIG. 6, FIG. 7. Here is the method: The methods of the invention may employ non-human mammals, e.g., rats, as the subjects, in which experimental therapeutic interventions are evaluated. […] The left panels show serial coronal slices through the brain. The overall level of activation was decreased in the gabapentin group compared to the placebo group. The right panels show differences in activation in specific circuitry known to be involved in pain processing that was affected in somatosensory regions (SI), emotional regions (nucleus accumbens—NAc), autonomic regions (hypothalamus), and endogenous analgesic regions (periaqueductal gray).

Test [3] has as its system neuropathic pain. The conditions noted are these: known efficacy in human neuropathic pain; cited from earlier work.

As for `NCC1(CC(=O)O)CCCCC1` [gabapentin], the “fMRI signal change (CNS activation) following the heat stimulus” value (from here on “fMRI signal change”) in test [1] was “decreasing signal change”. Besides, the “Overall level of CNS activation (fMRI)” value in test [2] is on record as “decreased”. In addition, in test [3], the “Efficacy in neuropathic pain” value is listed as “efficacy”.

As for `CC1(C)O[C@@H]2[C@@H](CO[C@@]3(COS(N)(=O)=O)OC(C)(C)O[C@@H]23)O1` [topiramate], the “fMRI signal change” value in test [1] is “decreasing signal change”. Moreover, in test [3], the “Efficacy in neuropathic pain” value is recorded as “efficacy”.

Regarding `CN(C)CCCN1c2ccccc2CCc2ccccc21` [imipramine], in test [1], the “fMRI signal change” value was “decreasing signal change”. For the same molecule, the “Efficacy in neuropathic pain” value in test [3] is “efficacy”.

For the molecule `O=C1CN=C(c2ccccc2Cl)c2cc([N+](=O)[O-])ccc2N1` [clonazepam], the “Efficacy in neuropathic pain” value in test [3] is recorded as “no efficacy”.

Regarding `O=C(c1ccccc1)c1ccc2n1CCC2C(=O)O` (stereo not shown) [ketorolac], the “Efficacy in neuropathic pain” value in test [3] is recorded as “no efficacy”.

As to `CS(=O)(=O)c1ccc(C2=C(c3ccccc3)C(=O)OC2)cc1` [rofecoxib], the “Efficacy in neuropathic pain” value in test [3] is recorded as “no efficacy”.
